Measured values as given in patent US9821002B2, “Method for alleviating radiation injury with isorhamnetin-3-O-β-D-glucoside” (Sinotai Oncology Associate., Ltd., priority 2015, dated 2017).

What was measured:
Assay type in all cases: cell-based, mouse
NMuMG cells = test: Cell cycle analysis (PI flow cytometry) after X-ray irradiation; details: 2 h pretreatment, X-ray 20 Gy, 96 hours, mean ± SEM
Description: Four groups of NMuMG cells (i.e., a normal control group, an X-ray control group, and two experimental groups referred to as Experimental Groups 1 to 2) were prepared based on the procedure set forth in “Source and cultivation of cell lines” of “Experimental materials”. NMuMG cells in each group were cultivated using 5 mL of a corresponding medium shown in Table 1 and a 6-cm Petri dish in an amount of 2.5×10^5 cells per dish. The cultivation was conducted in an incubator (37° C., 5% CO2) for 24 hours.
Subsequently, medium was replaced with fresh medium, and a suitable amount of isorhamnetin-3-O-β-D-glucoside stock solution was added to the obtained culture in each of Experimental Groups 1 and 2, such that the final concentration of isorhamnetin-3-O-β-D-glucoside in the culture in Experimental Group 1 was 15 μM, and the final concentration of isorhamnetin-3-O-β-D-glucoside in the culture in Experimental Group 2 was 30 μM. Isorhamnetin-3-O-β-D-glucoside stock solution was not added to the cultures in the normal control group and the X-ray control group.
The culture in each group was then cultivated in an incubator (37° C., 5% CO2) for two hours. The resultant culture was used for the following cell cycle analysis.
The cultures in the X-ray control group and Experimental Groups 1 to 2, prepared according to section A of “Experimental procedures” in this example, were subjected to X-ray irradiation using a linear accelerator at a dose of 20 Gy. The culture in the normal control group received no X-ray irradiation treatment. The culture in each group was cultivated in an incubator (37° C., 5% CO2) for 96 hours, followed by centrifugation at 25° C. and 1200 rpm for 3 minutes. The supernatant was removed, and the precipitate thus obtained was washed with cold PBS (pH 7.4), followed by fixing the cells with 1 mL of cold methanol. The fixed cells thus obtained were left standing at −20° C. overnight. Following this, the fixed cells were washed with cold PBS (pH 7.4), and 250 μL of cold DNA dying solution which was prepared in ddH2O, containing 200 μg/mL RNase A solution (Sigma-Aldrich), 50 μg/mL propidium iodide (PI)(Sigma-Aldrich), and 0.1% (v/v) Triton X-100, was added to re-suspend the cells in each group. The cells were kept in the dark for 30 minutes at 37° C. to obtain stained cells.
Subsequently, the stained cells thus obtained were subjected to cell cycle analysis using BD Accuri™ C6 flow cytometer (BD Biosciences), and 1.0×10^6 cells were analyzed in each analysis. The cells emitted fluorescence when excited by a laser beam of argon ion at 488 nm, and the fluorescence intensity was detected at a wavelength of 585 nm. The percentage of the cells in each cell cycle phase was analyzed using BD Accuri™ C6 software (BD Biosciences).

[1] = system: cleaved caspase-9 in BNL CL.2 cells; test: Expression profile of cleaved caspase-9 (Western Blotting) after X-ray irradiation; details: 5 and 30 μM, 2 h pretreatment, X-ray 15 Gy, 48 hours, normalized to β-actin
From the text: (§1) Four groups of BNL CL.2 cells (i.e., a normal control group referred to as Normal Control Group 1-A, an X-ray control group referred to as X-Ray Control Group 1-A, and two experimental groups referred to as Experimental Groups 1-A to 2-A), and six groups of NMuMG cells (i.e., a normal control group referred to as Normal Control Group 1-B, an X-ray control group referred to as X-Ray Control Group 1-B, two isorhamnetin groups referred to as Isorhamnetin Groups 1 to 2, and two experimental groups referred to as Experimental Groups 1-B to 2-B), were prepared based on the procedure set forth in “Source and cultivation of cell lines” of “Experimental materials”. BNL CL.2 cells in each group were cultivated using 5 mL of a corresponding medium shown in Table 1 and a 6-cm Petri dish in an amount of 2×10^5 cells per dish. […]
(§2) Subsequently, the culture in each group was cultivated in an incubator (37° C., 5% CO2) for 48 hours, and 120 μL of lysis buffer containing CelLytic™ M protein extraction reagent (Sigma-Aldrich) and proteinase inhibitor cocktail (Sigma-Aldrich) was added to the culture in each group, followed by mixing evenly. […] Protein concentration in the total protein sample was determined by means of the Bio-Rad Protein Assay Kit. […]
(§3) Subsequently, ImageScanner Imaging Software was used for analysis, such that the corresponding protein expression level was semi-quantitatively calculated. […]

[2] = system: cleaved caspase-9 in NMuMG cells; test: as above; details: 15 and 30 μM, 2 h pretreatment, X-ray 15 Gy, 48 hours, normalized to β-actin
From the text: as §1, §2, §3

COc1cc(-c2oc3cc(O)cc(O)c3c(=O)c2O[C@@H]2O[C@H](CO)[C@@H](O)[C@H](O)[C@H]2O)ccc1O [isorhamnetin-3-O-β-D-glucoside]
The percentage of the cells in each cell cycle phase: G0/G1 (NMuMG cells; 15 μM): 21 ± 4.31 % | The percentage of the cells in each cell cycle phase: G2/M (NMuMG cells; 15 μM): 58.76 ± 8.97% | The percentage of the cells in each cell cycle phase: S (NMuMG cells; 15 μM): 6.4 ± 0.28% | The percentage of the cells in each cell cycle phase: Sub-G1 (NMuMG cells; 15 μM): 16.11 ± 2.03 % | The percentage of the cells in each cell cycle phase: G0/G1 (NMuMG cells; 30 μM): 22.25 ± 4.87 % | The percentage of the cells in each cell cycle phase: G2/M (NMuMG cells; 30 μM): 59.63 ± 10.78% | The percentage of the cells in each cell cycle phase: S (NMuMG cells; 30 μM): 5.88 ± 1.2% | The percentage of the cells in each cell cycle phase: Sub-G1 (NMuMG cells; 30 μM): 13.88 ± 1.46 % | expression level of cleaved caspase-9 versus X-ray control group [1]: significant reduction in expression level of cleaved caspase-9 | expression level of cleaved caspase-9 versus X-ray control group [2]: significant reduction in expression level of cleaved caspase-9
